Measured values published in article PMC5390315 (Scientific Reports, 2017).
Values joined by “and” are separate entries in the source; they are usually repeats but may differ in a detail not shown here. Equal entries are not always repeated. Where two headings read alike, the source gives them in different places.

Assays:
bovine brain tubulin = assay: Inhibition of tubulin polymerization; format: biochemical; details: tubulin at 10 μM; read-out: Tubulin assembly IC50 ± S.D
Method: (§1) To evaluate the effect of the compounds on tubulin assembly in vitro[41], varying concentrations of compounds were preincubated with 10 μM bovine brain tubulin in 0.8 M monosodium glutamate (pH adjusted to 6.6 with HCl in a 2.0 M stock solution) at 30 °C and then cooled to 0 °C. After addition of 0.4 mM GTP, the mixtures were transferred to 0 °C cuvettes in a recording spectrophotometer and warmed to 30 °C. Tubulin assembly was followed turbidimetrically at 350 nm. […] The capacity of the test compounds to inhibit colchicine binding to tubulin was measured as described, except that the reaction mixtures contained 1 μM tubulin, 5 μM [^3H]colchicine and 1 or 5 μM test compound.

SEM cells = assay: Antiproliferative MTT assay, SEM; format: cell-based, human; details: Homo sapiens, 72 h, mean ± SE
Method: (§2) Human T-cell leukemia (Jurkat) and human B-cell leukemia (SEM and RS4;11) cells were grown in RPMI-1640 medium (Gibco, Milano, Italy). Breast adenocarcinoma (MCF-7), human cervix carcinoma (HeLa), human lung adenocarcinoma (A549) and human colon adenocarcinoma (HT-29) cells were grown in DMEM medium (Gibco, Milano, Italy), all supplemented with 115 units/mL penicillin G (Gibco, Milano, Italy), 115 μg/mL streptomycin (Invitrogen, Milano, Italy), and 10% fetal bovine serum (FBS; Invitrogen, Milano, Italy). Stock solutions (10 mM) of the different compounds were obtained by dissolving them in DMSO. Individual wells of a 96-well tissue culture microtiter plate were inoculated with 100 μL of complete medium containing 8 × 10^3 cells. The plates were incubated at 37 °C in a humidified 5% CO2 incubator for 18 h prior to the experiments. After medium removal, 100 μL of fresh medium containing the test compound at different concentrations was added to each well in triplicate and incubated at 37 °C for 72 h. The percentage of DMSO in the medium never exceeded 0.25%. This was also the maximum DMSO concentration in all cell-based assays described below.

HUVECs [1] = assay: Disruption of capillary-like tubes on Matrigel; format: cell-based, human; details: 100 nM (highest concentration), 24 h
Method: (§3) HUVECs were prepared from human umbilical cord veins, as previously described. The adherent cells were maintained in M200 medium supplemented with LSGS (Low Serum Growth Supplement), containing FBS, hydrocortisone, hEGF, bFGF, heparin, gentamycin/amphotericin (Life Technologies, Monza, Italy). Once confluent, the cells were detached by a trypsin–EDTA solution and used in experiments from the first to sixth passages.
Matrigel matrix (Basement Membrane Matrix, BD Biosciences, Italy) was kept at 4 °C for 3 h, when 230 μL of Matrigel solution was added to each well of a 24-well plate. After gelling at 37 °C for 30 min, gels were overlaid with 500 μL of medium containing 6 × 10^4 HUVECs. The cells were incubated over Matrigel for 6 h to allow capillary tubes to form. Different concentrations of test compound were added in the cultures and incubated for different times, and the disappearance of existing vasculature was monitored and photographed (five fields for each well: the four quadrants and the center) at a 10x magnification. Phase contrast images were recorded using a digital camera and saved as TIFF files. Image analysis was carried out using ImageJ image analysis software, and dimensional (percent area covered by HUVECs and total length of HUVECs network per field) and topological parameters (number of meshes and branching points per field) were determined. Values were expressed as percent change from control cultures grown with complete medium.

[2] = test system: B16 murine melanoma cells; assay: MTT assay on B16 murine melanoma cells; format: cell-based; details: Mus musculus
tubulin = assay: Inhibition of [3H]colchicine binding to tubulin; details: tubulin 1 μM, [3H]colchicine 5 μM
Method: as §1

HT-29 = assay: Antiproliferative MTT assay, HT-29; format: cell-based, human; details: Homo sapiens, HT-29, 72 h, mean ± SE
Method: as §2

HeLa = assay: Antiproliferative MTT assay, HeLa; format: cell-based, human; details: Homo sapiens, HeLa, 72 h, mean ± SE
Method: as §2

PBL stimulated with PHA = assay: Cytotoxicity in PHA-stimulated peripheral blood lymphocytes; format: cell-based; details: Homo sapiens, Lymphocyte, 72 h, MTT, mean ± SEM, read-out: IC50 PBLPHA
Method: Peripheral blood lymphocytes (PBL) from healthy donors were obtained from human peripheral blood (leucocyte rich plasma- buffy coats) from healthy volunteers using the Lymphoprep (Fresenius KABI Norge AS) gradient density centrifugation.
After extensive washing, cells were resuspended (1.0 × 10^6 cells/mL) in RPMI-1640 with 10% FBS and incubated overnight. For cytotoxicity evaluations in proliferating PBL cultures, non-adherent cells were resuspended at 5 × 10^5 cells/mL in growth medium, containing 2.5 μg/mL PHA (Irvine Scientific). Different concentrations of the test compounds were added, and viability was determined 72 h later by the MTT test. For cytotoxicity evaluations in resting PBL cultures, non-adherent cells were resuspended (5 × 10^5 cells/mL) and treated for 72 h with the test compounds, as described above.

HUVECs [3] = assay: Cytotoxicity in HUVECs; format: cell-based; details: Homo sapiens, HUVEC; primary HUVECs
Method: as §3

[4] = test system: panel of seven human tumor cell lines; assay: Antiproliferative activity, range over panel of seven human tumor cell lines; format: cell-based; details: read-out: IC50 values, range over the cell line panel
Method: as §2

RS 4;11 = assay: Antiproliferative MTT assay, RS 4;11; format: cell-based, human; details: Homo sapiens, RS4-11, 72 h, mean ± SE
Method: as §2

HeLa cells [5] = assay: ROS production (H2-DCFDA), HeLa; format: cell-based, human; details: 100 nM, untreated about 4%
HeLa cells [6] = assay: Mitotic cells by p-histone H3/PI flow cytometry; format: cell-based, human; details: 100 nM, 24 h, untreated 1.3%

`CCOc1ccc(-c2oc(C)nc2-c2cc(OC)c(OC)c(OC)c2)cc1` [Compound 4i, 4-(3,4,5-Trimethoxyphenyl)-5-(4-ethoxyphenyl)-2-methyloxazole] was tested, and the IC50 (bovine brain tubulin) was 560 ± 100 nM, the IC50 (SEM cells) was 6.1 ± 2.3 nM and the “antivascular effect on Matrigel preformed tubular structures” value (HUVECs [1]) was “did not show a significant antivascular effect”. The IC50 [2] was 15.6 ± 1.9 nM, the “Colchicine binding % inhibition ± S.D, 1 μM drug” value (tubulin; 1 μM drug) was 62 ± 0.4% and the “Colchicine binding % inhibition ± S.D, 5 μM drug” value (tubulin; 5 μM drug) was 82% and 86 ± 1%. For the same compound, the IC50 (HT-29) was 20.2 ± 8.8 nM, the IC50 (HeLa) was 0.9 ± 0.3 nM and the IC50 (PBL stimulated with PHA) was 18300 ± 1500 nM. For the same compound, the IC50 (HUVECs [3]) was > 100000 nM, the IC50 ([4]; Homo sapiens) was 0.5 to 20 nM and the IC50 [4] was 0.5 to 20.2 nM. For the same compound, the IC50 (RS 4;11) was 2.1 ± 0.2 nM, the “DCF positive cells (ROS production)” value (HeLa cells [5]) was 25–30% and the “percentage of mitotic cells (p-histone H3)” value (HeLa cells [6]) was ~46%.
